Consider 2 compounds from publication PMC7435722, “Apoferritin and Apoferritin-Capped Metal Nanoparticles Inhibit Arginine Kinase of Trypanosoma brucei” (Molecules, 2020).

This experiment deals with T1, arginine kinase of T. brucei (recombinant form).
T1 construct: gene AK1; recombinant, obtained from Rhodes University laboratory
The experiment can be described thus: phosphate release, molybdate colorimetric […] nm, nonlinear Michaelis-Menten fit. As to conditions: no inhibitor, Mg sulfate, 100 mM Tris-HCl pH 8.6, 30 °C. It is filed as biochemical, Trypanosoma brucei.

Where two headings read alike, the source gives them in different places.

In the case of `Nc1ncnc2c1ncn2[C@@H]1O[C@H](COP(=O)(O)OP(=O)(O)OP(=O)(O)O)[C@@H](O)[C@H]1O` [ATP], the Km (2 mM L-arginine fixed, ATP 0.1-0.5 mM, read-out: Km (ATP)) came out at 5 µM. For `N=C(N)NCCC[C@H](N)C(=O)O` [L-arginine], the Michaelis constant (Km) (0.5 mM ATP fixed, L-arginine 0.5-2.5 mM, read-out: Km (L-arginine)) stood at 21 ± 10 µM.

The term Km denotes the substrate concentration at which the rate is half of its maximum.
